Values quoted from earlier work as cited in publication PMC7062412 (Drug Design, Development and Therapy, 2020).

Legend:
ET-1 = conditions: overall animals, isolated organs, cells and subcells

O=C(O)/C=C/c1ccc(O)c(O)c1 [Caffeic Acid, caffeic acid]
antagonistic biological effect on ET-1 (ET-1): had an antagonistic biological effect on ET-1 | half-life in the body: 30 to 60 min
